Data published in paper PMC4750079, “Tackling amyloidogenesis in Alzheimer’s disease with A2V variants of Amyloid-β” (Scientific Reports, 2016).
Where a SMILES comes first, the peptide text is derived from it. [ ]: non-standard residue; d: D form.

What was measured:
[1] = tested on: SH-SY5Y cells; experiment: Toxicity of peptides on differentiated SH-SY5Y cells (MTT test); assay type: cell-based, human; conditions: 24 h; for toxicity for living cells: up to 20 μM, mean of three independent assays
Experimental: Figure 2 Analysis of the effects of Aβ1-6WT(D), Aβ1-6A2V(D) and Aβ1-6A2VTAT(D) on neurotoxicity in cell models. SH-SY5Y cells were differentiated with 10 μM retinoic acid. […] Comparison of cell viability was performed by Student t-test.
Toxicity studies with Aβ1-6WT(D), Aβ1-6A2V(D) or Aβ1-6A2VTAT(D) and the short peptides’ ability to inhibit the toxicity induced by Aβ1-42WT in SH-SY5Y cell cultures were analyzed following previously described protocols. Each experiment was performed in triplicate; the data provided were obtained as the mean of three independent assays.

[2] = Crossing of blood brain barrier and cell membranes (data not shown); conditions: peptide alone
[3] = tested on: amyloid plaques; experiment: Binding of biotinylated peptides to amyloid in CRND8 mouse brain sections; conditions: for staining of amyloid plaques in transgenic mouse brain: CRND8 transgenic brain sections, avidin-biotin complex / DAB
Experimental: It was tested on brain sections of transgenic and control mice of CRND8 strain[44]. To unequivocally identify the fragment(s) of the peptide responsible for binding to plaques we used three separate segments: Biot-Aβ1-6WT(D), Biot-Aβ1-6A2V(D) and Biot-TAT(D). Seven-micrometre thick brain sections fixed in Carnoy and embedded in paraffin were used for staining.

[4] = molecular target: T1, Aβ1-42WT (Homo sapiens, UniProt P05067); experiment: Atomic force microscopy of Aβ1-42WT oligomerization; assay type: biochemical; conditions: Aβ1-42WT alone, 100 μM, phosphate buffer 50 mM pH 7.4, 4 °C, 24 h, AFM
T1 construct: Aβ1-42WT oligomers were formed following incubation of Aβ1-42WT at a final concentration of 100 μM; made in house; host or cells: chemical synthesis (solid-phase Fmoc), no expression host
T1 sequence (P05067 672-713 limits assumed): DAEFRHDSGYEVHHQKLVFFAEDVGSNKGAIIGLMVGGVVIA
Experimental: In polarized-light and EM studies, both peptides were used at 0.125 mM, molar ratio = 1:1 or 1:4 respectively, with 20 days incubation. […] E,F: Representative Tapping mode of AFM images as determined by amplitude error data of Aβ1-42WT oligomers. Aβ1-42WT peptide 100 μM in phosphate buffer 50 mM, pH 7.4 was incubated at 4 °C for 24 h alone (E) (Z range: -10/ + 10 mV) or in presence of Aβ1-6A2VTAT(D) (F) (Z range: -10/ + 25 mV). The molar ratio of Aβ1-42WT to Aβ1-6A2VTAT(D) was 1:4. Scale bar: 1 μm, inset: 200 nm. (G,H): height plot profiles obtained along different lines traced on the topographic AFM images.
Aβ1-42WT oligomers were formed following incubation of Aβ1-42WT at a final concentration of 100 μM in phosphate buffer 50 mM, pH 7.4 at 4 °C for 24 h, alone or in presence of Aβ1-6A2VTAT(D), at 1:4 molar ratio. Sample solutions were diluted to a final concentration of 10 μM of Aβ1-42WT with phosphate buffer and 50 μl of each solution was immediately added onto freshly cleaved mica at room temperature for 2 minutes. Samples were washed and dried under gentle nitrogen flow. AFM analyses were carried out on a Multimode AFM with a Nanoscope V system (Veeco/Digital Instruments). AFM images were analysed using the Scanning Probe Image Processor data analysis package. All the topographic patterns and SPIP characterization were verified via additional measurements on a minimum of five different, well separated areas.

[5] = tested on: APP; conditions: enhanced β-secretase cleavage of APP, increased C99; cited from earlier work
Text: This is consistent with our findings, indicating a shift in APP processing towards the amyloidogenic processing i ...

CC(C)[C@@H](NC(=O)[C@H](N)CC(=O)O)C(=O)N[C@H](CCC(=O)O)C(=O)N[C@H](Cc1ccccc1)C(=O)N[C@H](CCCNC(=N)N)C(=O)N[C@H](Cc1c[nH]cn1)C(=O)O [Aβ1-6A2V(D)] (H-[dD][dV][dE][dF][dR][dH]-OH)
toxicity for living cells [1]: neither is toxic for living cells even at high concentrations | crossing of blood brain barrier and cell membranes [2]: does not efficiently cross either the blood brain barrier (BBB) or cell membranes

H-Asp-ALA/VAL-Glu-Phe-Arg-His-Gly-Gly-Gly-Gly-Gly-Arg-Lys-Lys-Arg-Arg-Gln-Arg-Arg-Arg [Biot-Aβ1-6WTTAT(D), Aβ1-6WTTAT(D) containing a biotinylated residue at the C-terminus]
staining of amyloid plaques in transgenic mouse brain [3]: able to bind and therefore stain the plaques | staining in brain slices of non-transgenic control mice ([3]; control animals devoid of amyloid plaques, data not shown): unable to produce any staining

H-Asp-ALA/VAL-Glu-Phe-Arg-His-OH [Biot-Aβ1-6A2V(D), Aβ1-6A2V(D) containing a biotinylated residue at the C-terminus]
staining of amyloid plaques in transgenic mouse brain [3]: no immunostaining of amyloid was detected

H-Asp-ALA/VAL-Glu-Phe-Arg-His-Asp-Ser-Gly-Tyr-Glu-Val-His-His-Gln-Lys-Val-Phe-Phe-Ala-Glu-Asp-Val-Gly-Ala-Ile-Ile-Gly-Leu-Met-Val-Gly-Gly-Val-Val—OH [Aβ1-42WT, synthetic wild-type full-length Amyloid-β 1-42, reference compound]
reduction of cell viability [1]: 35% | diameter of small oligomers (~70%) [4]: 6-20 nm

C[C@@H](NC(=O)[C@H](N)CC(=O)O)C(=O)N[C@H](CCC(=O)O)C(=O)N[C@H](Cc1ccccc1)C(=O)N[C@H](CCCNC(=N)N)C(=O)N[C@H](Cc1c[nH]cn1)C(=O)O [Aβ1-6WT(D)] (H-[dD][dA][dE][dF][dR][dH]-OH)
toxicity for living cells [1]: neither is toxic for living cells even at high concentrations

Gly-Arg-Lys-Lys-Arg-Arg-Gln-Arg-Arg-Arg [Biot-TAT(D), biotinylated form of TAT(D), reference compound]
staining of amyloid plaques in transgenic mouse brain [3]: strongly stained amyloid deposits

B1: TAT: HIV-1 Tat of the cited studies (protein, UniProt P04608 1-86, looked up)
Protein Tat: MEPVDPRLEPWKHPGSQPKTACTNCYCKKCCFHCQVCFITKALGISYGRKKRRQRRRAHQNSQTHQASLSKQPTSQPRGDPTGPKE
fold higher levels of Aβ42 [5]: 5.5 fold
